Laboratory results taken from patent publication US8791072B2 (priority 2011, dated 2014).
Values joined by “and” are separate entries in the source; they are usually repeats but may differ in a detail not shown here. Equal entries are not always repeated. Where no end group is shown, it is not given here.

Tests used:
[1] = system: neuromuscular junctions in rabbit extraocular muscle; details: in vivo; cited from earlier work
[2] = system: neuromuscular junctions in orbicularis oculi muscle; details: rabbit, in vivo
neuromuscular junction = details: in vivo; cited from earlier work
superior rectus muscle = details: rabbit, in vivo

Substance	change in number of neuromuscular junctions in the treated area [1]	combined total muscle neuromuscular junction density, orbicularis oculi muscle [2]	increase of combined total muscle neuromuscular junction density [2]	neuromuscular junction density, preseptal region [2]	neuromuscular junction density, pretarsal region [2]	preseptal neuromuscular junction density relative to control [2]	return of normal neuromuscular junction activity (neuromuscular junction)	muscle force in response to electrical stimulation (superior rectus muscle)	neuromuscular junction density compared to saline control (in words) [2]	neuromuscular junction density, orbicularis oculi muscle [2]
botulinum toxin A	doubling of neuromuscular junctions	5.9±0.43 /mm^2	~3 fold	4.4±01 /mm^2 and 2.9±0.4 /mm^2 and 5.23±0.7 /mm^2	4.0±0.21 /mm^2 and 5.7±0.8 /mm^2	between about two and three times greater than control	20%	variable response, with some showing force equal to the saline-treated control muscles	–	–
corticotropin releasing factor (SEEPPISLDLTFHLLREVLEMARAEQLAQQAHSNRKLMEII; ends and bridges not checked; UniProt P06850 154-194, looked up) [CRF]	–	–	–	–	–	–	–	–	not significantly different from the density in the control orbicularis oculi muscles	2.39±0.23 /mm^2
